These results are taken from patent US8399466B2, “Composition for regenerative treatment of cartilage disease” (Mitsubishi Tanabe Pharma Corporation, priority 2001, dated 2013).

For experiment [1], the system named is cAMP-hydrolyzing PDE expressed in articular cartilage (PDE4-related peaks). Description: cAMP hydrolyzing activity (PDE activity) of Mono Q fractions of articular cartilage extract, radio-labeled nucleic acid assay. The format is biochemical, rabbit. The conditions noted are these: final concentration 1×10^−5 M; FIG. 1. The method, then:
Four NZW line rabbits (Kitayama Labes., Co Ltd.; male; 4-week-old) were sacrificed with bleeding under ether anesthesia and femur knee joints were collected aseptically. The collected knee joints were stored in phosphate buffer (pH 7.2) containing 0.2% glucose and only the cortical layer of knee joint portion was scrapped with a knife into a 50 ml tube containing phosphate buffer (pH 7.2) containing 0.2% glucose. The collected knee joint cortical layer was cut into as small sections as possible on a dish with a razor, washed with ice-cold phosphate buffer and homogenized with a homogenizer (Polytron: Kinematica A.G.) in homogenization buffer (20 mM Tris-HCl, pH 7.4, 2 mM magnesium acetate, 0.3 mM calcium chloride, 1 mM dithiothreitol, 40 μM leupeptin, 1.3 mM benzamidine, 0.2 mM phenylmethylsulfonyl fluoride and 1 mM sodium azide). The resultant homogenate was centrifuged (100,000×g, 60 minutes) to separate supernatant.
The supernatant was subjected to Mono Q Sepharose High Performance column (Amersham Pharmacia Biotech) previously equilibrated with an elution buffer (20 mM Tris-HCl, pH 7.4, 1 mM calcium chloride, 1 mM dithiothreitol, 2 μM leupeptin, 5 mM benzamidine). […]
The determination of PDE activity was performed by a radio-labeled nucleic acid assay. […] To each eluate was added a liquid scintillation cocktail and the radio activity was measured.

For experiment [2], the system named is articular chondrocytes. The experiment is described as follows: Increase of matrix production of articular chondrocytes (Alcian blue staining of proteoglycan). The format is cell-based, rabbit. The conditions noted are these: for Proteoglycan Production (%): cultivation until day 5, vehicle = 100. The method, then:
Four NZW line rabbits (Kitayama Labes., Co Ltd.; male; 4-week-old) were sacrificed with bleeding under ether anesthesia and femur knee joints were collected aseptically. The collected knee joints were stored in phosphate buffer (pH 7.2) containing 0.2% glucose and only the cortical layer of knee joint was scrapped with a surgical knife into a 50 ml tube containing phosphate buffer (pH 7.2) containing 0.2% glucose. The collected knee joint cortical layer was cut into as small sections as possible on a dish with a razor and shaken at 37° C. for 15 minutes in phosphate buffer containing 0.2% glucose, supplied with 10× trypsin-ethylenediamine tetraacetic acid (EDTA)·4 Na salt (GIBCO; Cat. No. 15400-054) (50 ml, with 100 mg of trypsin and 40 mg of EDTA·4Na; pH 7.2). After shaking, the sample was centrifuged (1,400 rpm) to collect precipitates, and the precipitates were washed twice with 40 ml of phosphate buffer containing 0.2% glucose. The washed precipitates were combined with 40 ml of serum-free α-minimum essential medium (MEM: GIBCO; Cat: No. 12571-063) containing 60 mg of collagenase for cell diffusion (Wako Pure Chemical Industries, Ltd., 034-10533) and transferred to a 100 ml beaker containing a sterilized stirrer bar. Under stirring with the stirrer bar, the collagenase digestion was carried on for about 1 hour in a CO2 incubator at 37° C. Cartilage fragments were removed from the collagenase-treated cells using a […] Cell Strainer ([FALCON; Cat. No. 2340]). To the residual treated cells was added 10 ml of α-MEM medium containing 10% fetal calf serum (FCS), and centrifuged (1,400 rpm). The precipitates were washed with 10% FCS-αMEM medium twice, suspended in appropriate volume of the same medium and the resultant suspension was seeded into collagen type II (Wako Pure Chemical Industries, Ltd., 033-13901)-coated plates (48 well) at 20,000 cells/well. On the next day, the medium was replaced with 10% FCS-αMEM medium.
When cells reached to confluent after the medium exchange procedure above, the medium for test group was replaced with test compound-containing medium (including 0.1% dimethylsulfoxide as a vehicle). As a medium to which a test compound is added, 10% FCS-αMEM medium containing 0.2 mM ascorbic acid was used. The day on which test compound-containing medium was added for the first time was defined as “day 1”. The medium exchange with the same medium was again conducted at day 3 and the cultivation continued until day 5. As to the control group, the medium was exchanged at the same time using the same medium as the test group except that it is free of test compound (containing vehicle only), and the cultivation was carried out in the same manner. After completion of cultivation, the supernatant was removed from the culture medium. Cells were fixed by addition of 0.25 ml of neutral buffer containing 4% paraformaldehyde and incubation for 2 hours. Cells were washed three times with 1 ml of phosphate buffer (pH 7.2) and then stained for 4 hours with 0.1% Alcian blue 8GX (Sigma; A3157) dissolved in 0.1 M hydrochloric acid, which Alcian blue selectively stains cartilage matrix proteoglycan. After staining, the cells were washed 3 times with 1 ml of phosphate buffer (pH 7.2). Alcian blue which had stained cartilage matrix was dissolved with 0.25 ml of aqueous 6 M guanidine hydrochloride solution and a portion of the solution was used to determine the absorbance at 620 nm. The amounts of Alcian blue used for staining was calculated from the absorbance, which in turn was used for the estimation of the amount of matrix (proteoglycan).

For the compound `COc1ccc(C2CNC(=O)C2)cc1OC1CCCC1` (stereo not shown) [Compound (44)], in experiment [1], the “inhibition of cAMP hydrolyzing activity of the four peaks” value is listed as “strongly inhibited”. The “Proteoglycan Production (%)” value in experiment [2] (1 × 10^−4 M) is on record as 116%; in experiment [2] (1 × 10^−5 M), 125%. The “matrix production promoting activity” value in experiment [2] (summary of Table 1) is given as “exert matrix production promoting activity”.
